From patent US20240051935A1, “SUBSTITUTED PYRAZOLO PIPERIDINE CARBOXYLIC ACIDS” (BAYER AKTIENGESELLSCHAFT, priority 2020, published 2024) come the findings set out here.

The structures appear in SMILES notation. Structures can show the parent of a compound that is named as a salt. Where two headings read alike, the source gives them in different places.

Usually EC50 stands for the concentration that produces a half-maximal response.

For data set [1], the target named is T1, recombinant guanylate cyclase reporter cell line (Rattus norvegicus, UniProt P19686+P20595).
T1 construct: expressed in transfected cells; host or cells: recombinant reporter cell line
T1 sequence (P20595 1-619): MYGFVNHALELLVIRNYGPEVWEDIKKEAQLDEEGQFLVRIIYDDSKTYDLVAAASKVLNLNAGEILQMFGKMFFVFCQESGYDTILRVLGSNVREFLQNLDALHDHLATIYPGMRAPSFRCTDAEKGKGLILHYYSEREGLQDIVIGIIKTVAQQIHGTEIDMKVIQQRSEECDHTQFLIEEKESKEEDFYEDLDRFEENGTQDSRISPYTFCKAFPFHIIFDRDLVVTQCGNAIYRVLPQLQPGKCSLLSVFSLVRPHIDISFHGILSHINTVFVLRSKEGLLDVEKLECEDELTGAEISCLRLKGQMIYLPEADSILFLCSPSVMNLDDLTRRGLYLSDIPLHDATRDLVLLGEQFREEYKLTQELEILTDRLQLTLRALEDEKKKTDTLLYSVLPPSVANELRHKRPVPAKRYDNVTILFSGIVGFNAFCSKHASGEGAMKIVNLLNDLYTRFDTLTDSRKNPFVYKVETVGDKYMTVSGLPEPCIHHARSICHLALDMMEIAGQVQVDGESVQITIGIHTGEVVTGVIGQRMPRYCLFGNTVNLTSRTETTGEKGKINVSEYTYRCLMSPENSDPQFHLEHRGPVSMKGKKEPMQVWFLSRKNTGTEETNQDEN
T1 sequence (P19686 1-690): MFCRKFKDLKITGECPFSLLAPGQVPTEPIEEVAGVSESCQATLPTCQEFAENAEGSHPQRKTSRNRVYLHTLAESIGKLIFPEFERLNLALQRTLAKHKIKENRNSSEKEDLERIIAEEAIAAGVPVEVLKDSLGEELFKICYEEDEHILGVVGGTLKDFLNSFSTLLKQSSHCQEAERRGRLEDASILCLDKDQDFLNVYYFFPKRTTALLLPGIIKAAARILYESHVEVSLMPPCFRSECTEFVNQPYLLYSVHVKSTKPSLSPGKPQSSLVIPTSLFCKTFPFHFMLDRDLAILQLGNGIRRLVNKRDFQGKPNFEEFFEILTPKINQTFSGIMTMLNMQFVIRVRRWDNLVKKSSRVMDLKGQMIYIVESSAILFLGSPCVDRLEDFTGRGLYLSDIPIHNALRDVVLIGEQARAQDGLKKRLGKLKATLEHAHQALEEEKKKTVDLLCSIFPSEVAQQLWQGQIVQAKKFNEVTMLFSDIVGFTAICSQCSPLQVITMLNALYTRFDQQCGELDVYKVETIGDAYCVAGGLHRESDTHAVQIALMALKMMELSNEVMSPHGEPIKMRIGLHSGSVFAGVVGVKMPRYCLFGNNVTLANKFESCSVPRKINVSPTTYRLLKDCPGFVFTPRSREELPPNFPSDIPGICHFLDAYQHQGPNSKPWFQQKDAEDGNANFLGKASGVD
Nature of the data set: Effect on a recombinant guanylate cyclase reporter cell line. The class given is cell-based. As to the method:
The cellular activity of the compounds according to the invention was determined using a recombinant guanylate cyclase reporter cell line, as described in F. Wunder et al., Anal. Biochem. 339, 104-112 (2005).

Data set [2] can be described thus: Pharmacokinetic parameters following intravenous and oral administration in rats. The class given is in vivo, male Wistar rats. The conditions noted are these: in rats as well as in dogs. As to the method:
The pharmacokinetic parameters of the compounds according to the invention were determined in male Wistar rats and/or in female beagles and/or in cynomolgus monkeys and/or in male CD-1 mice. Intravenous administration in the case of mice and rats was carried out by means of a species-specific plasma/DMSO formulation, and in the case of dogs and monkeys by means of a water/PEG400/ethanol formulation. In all species, oral administration of the dissolved substance was performed via gavage, based on a water/PEG400/ethanol formulation.
An internal standard (which may also be a chemically unrelated substance) was added to the samples of the compounds of the invention, calibration samples and qualifiers, and there follows protein precipitation by means of acetonitrile in excess. […] The supernatant was analysed by LC-MS/MS using C18 reversed-phase columns and variable mobile phase mixtures. The substances were quantified via the peak heights or areas from extracted ion chromatograms of specific selected ion monitoring experiments.
The plasma concentration/time plots determined were used to calculate the pharmacokinetic parameters such as AUC,Cmax,t½ (terminal half-life), F (bioavailability), MRT (mean residence time) and CL (clearance), by means of a validated pharmacokinetic calculation program. […]

As to `CC(C)CN1CCN(c2ccc(-c3ccc(Cl)cc3N3CCCC(n4ncc(C(=O)O)c4C(F)(F)F)C3)cc2)CC1` (single isomer, unassigned) [Example 1, 1-[1-{4-Chloro-4′-[4-(2-methylpropyl)piperazin-1-yl][1,1′-biphenyl]-2-yl}piperidin-3-yl]-5-(trifluoromethyl)-1H-pyrazole-4-carboxylic acid], in data set [1], the EC50 was determined as 40 nM and the “MEC (minimum effective concentration)” value was 6.5 nM.
`CC(C)CN1CCN(c2ccc(-c3ccc(Cl)cc3N3CCCC(n4ncc(C(=O)O)c4C(F)(F)F)C3)cc2)CC1` (single isomer, unassigned) [Example 2, 1-[1-{4-chloro-4′-[4-(2-methylpropyl)piperazin-1-yl][1,1′-biphenyl]-2-yl}piperidin-3-yl]-5-(trifluoromethyl)-1H-pyrazole-4-carboxylic acid hydrochloride]: the EC50 in data set [1] was 11 nM. In addition, the “MEC (minimum effective concentration)” value in data set [1] (hydrochloride) came to 2.2 nM. Besides, the “lower plasma clearance (CLplasma) in comparison to example 174 in WO 2012/058132” value in data set [2] is listed as “up to 10 times”.
